Assay [1] relates to CD4+ T-cell subpopulation. The assay is described as follows: Proliferation assay with CD4+-enriched T-cell subpopulation. It counts as cell-based, human. As to the method:
(§1) PBL enriched for T-cell subpopulations were isolated by depleting a particular population by antibody/complement-mediated cytotoxicity. CD4^+ cells were prepared by lysing CD8^+ cells with anti-CD8 antibody and rabbit complement whereas the CD8^+ T cell subpopulation was enriched by lysing CD4^+ cells with an anti-CD4 antibody and rabbit complement.
(§2) PBL were resuspended in RPMI-1640 medium containing 2 mM L-glutamine, 25 mM HEPES, and 10 μg per ml gentamicin (HEPES media) at a concentration of 20×10^6 cells per ml. T cell specific MAb, OKT4 or OKT8 (Ortho Diagnostics Inc.), was added to the cells at the optimal concentration (previously determined by titration to give maximal lysis) and incubated on ice for 30 minutes. The cells were then washed with fresh HEPES media and resuspended at 10×10^6 cells per ml in baby rabbit complement (Pel-Freez Clinical Systems) diluted with the HEPES media to the appropriate concentration (previously assayed to give maximal antibody-specific cytotoxicity). The cells were incubated for 45 minutes in a 37° C. water bath with gentle mixing every 15 minutes. After incubation, the cells were washed thoroughly with the HEPES media and an aliquot (1-2×10^6) of cells was removed and stained for flow cytometric analysis which was performed as described below. […]

For assay [2], the system named is anti-EA-R and anti-EA-D sera. The assay is described as follows: ELISA, anti-EA-R and anti-EA-D sera against p17.1 and p50.10. The assay is classed as binding, human. The following applies: individual sera, donors Anti-EA-negative (VCA-negative); values >0.2 significant. As to the method: ELISA. The ELISA for measuring specific antibodies to p17, p50 or to the synthetic peptides was performed as previously described in detail (Luka et al., J. Immunol. Methods, 67:145-156, 1984). Aliquots of different antigen concentrations were diluted in 0.5M Na2CO3 buffer, pH 9.5, added to wells in polystyrene microtiter plates (Linbro) and the plates incubated overnight at 4° C. Following this incubation period, the plates were washed 5× with Tris-HCl, pH 7.4, containing 0.05% Tween 20, 50 mM NaCl and 100 mg per liter albumin (Sigma) and dried for 20 minutes at room temperature. The plates were screened with different anti-EA-R or EA-D antibody positive human sera and the monoclonal antibody to p17 or p50 to identify the optimal concentration of antigen to be used in the serological studies. Alkaline-phosphatase-labelled goat anti-human IgG (Sigma) or goat anti-mouse IgG (Sigma) was used as the indicator system.
For the testing of human sera for antibodies to native p17, p50 or to the synthetic peptides, sera were diluted 1:10 in ELISA buffer, added in 0.1 ml volumes to wells coated with optimal concentrations of antigen and the plates were incubated for 60 minutes at room temperature. […] The reaction was allowed to proceed for 30 minutes at 37° C. and then the plates were screened directly with a microplate reader, TITERTEK MULTISKAN MC (Flow), at 420 nm. […]

The subject of assay [3] is CD8+ T-cell subpopulation. As to the kind of experiment: Proliferation assay with CD8+-enriched T-cell subpopulation. It counts as cell-based, human. As to the method: as §1, §2
For assay [4], the system named is anti-EA antibodies in human sera. As to the kind of experiment: Serological reactivity of different sera (VCA-EA-, VCA+EA+, VCA+EA-) with p50.10. It counts as binding. As to the method:
Serological reactivity of different sera (VCA−EA−, VCA+EA+, VCA+EA−) with the p50.10 synthetic peptide was performed as described in Example 1, according to Pothen, et al., supra.

“And” between values parts separate entries of the source, which are not always exact repeats. Identical values can stand only once.

As to “ETFTETWNRFITHTE [p17.1, synthetic peptide from 17 Kd early antigen (EA-R) region of EBV]”, the S.I. is given as at most 5.3 in assay [1] (CD4+ subpopulation from donor A, different concentrations) and “greater than 3” in assay [3] (CD8+ subpopulation from donor B, 50 μg per ml). For the same sequence, the proliferation response result is given as “responded” in assay [1] (CD4+ subpopulation from donor B) and “unresponsive” in assay [3] (CD8+ subpopulation from donor A). The “ELISA (420 nm) OD readings” value in assay [2] is 0.024 and 0.071 and 0.027.
With “KQKHPKKVKQAFNPL [p50.10, synthetic peptide from 50 Kd early antigen (EA-D) region of EBV]”, in assay [4], the “reactivity with anti-EA antibody negative sera” value is reported as “lack of reactivity”.

The values are drawn from patent US7988972B2, “Immunoreactive peptides from Epstein-Barr virus” (Ortho-Clinical Diagnostics, Inc., priority 1993, dated 2011).
